From patent US9643917B2, “Water-soluble propofol derivatives and uses thereof” (JIANGSU NHWALUOKANG PHARMCEUTICAL RESEARCH AND DEVELOPMENT …, priority 2014, dated 2017)
Where two headings read alike, the source gives them in different places.

Columns and labels:
[1] = rabbit plasma, 37° C., HPLC
Experimental: (§1) 0.1 ml samples were taken from each of the solutions, added respectively to 1 ml of blood plasma of rabbit (taken from New Zealand white rabbits, treated according to conventional methods, anticoagulated with heparin) or 1 ml of blood plasma of rat (taken from live SD rats, processed according to conventional methods, anti coagulated with heparin), homogeneously mixed, and placed in a thermostatic water bath at 37° C. for incubation with time being recorded. Samples were taken at different time points after the experiment began, and 2 ml of acetonitrile was immediately added. The samples were shaken and centrifuged for 5 min (15,000 rpm), and the supernatant was then taken for HPLC analysis.

[2] = rat plasma, 37° C., HPLC
Experimental: as §1

Row | Compound | Dissociation percent 15 s [1] | Dissociation percent 30 s [1] | Dissociation percent 5 s [2] | Dissociation percent 15 s [2] | Dissociation percent 30 s [2]
1 | CCN(C)CCC(F)C(=O)Oc1c(C(C)C)cccc1C(C)C.Cl (racemic) [E4, propofol 4-N-methyl-N-ethylamino-2-(R,S)-2-fluorobutyrate hydrochloride] | 58.3% | 70.4% | 70.2% |  | 
2 | CC(C)NCC(CF)C(=O)Oc1c(C(C)C)cccc1C(C)C.CS(=O)(=O)O (racemic) [E6, propofol 3-N-isopropylamino-2-(R,S)-2-monofluoromethylpropionate methanesulfonate] | 27.1% | 44.3% | 24.2% | 40.1% | 
3 | CC(C)c1cccc(C(C)C)c1OC(=O)C(F)CCCCCC(=O)[O-].CC(C)c1cccc(C(C)C)c1OC(=O)C(F)CCCCCC(=O)[O-].[Ca+2] (racemic) [F4, di[propofol 7-carboxyl-2-(R,S)-fluorocaprylate] calcium salt] | 48.3% | 61.7% | 63.8% |  | 
4 | CC(C)c1cccc(C(C)C)c1OC(=O)C(CF)CCCCCCC(=O)[O-].CC(C)c1cccc(C(C)C)c1OC(=O)C(CF)CCCCCCC(=O)[O-].CC(C)c1cccc(C(C)C)c1OC(=O)C(CF)CCCCCCC(=O)[O-].[Al+3] (racemic) [F6, tri[propofol 8-carboxyl-2-(R,S)-monofluoromethylpelargonate] aluminum salt] | 37.1% | 58.3% | 34.2% | 55.7% | 
5 | CC(C)c1cccc(C(C)C)c1OC(=O)C(F)CCOP(=O)([O-])[O-].[K+].[K+] (racemic) [G1, {1-[4-(2,6-diisopropylphenoxy)-4-oxo-3-(R,S)-3-fluoro-1-butyl]} phosphate monoester dipotassium salt] | 43.7% | 68.7% | 54.1% | 67.4% | 86.9%
6 | CC(C)c1cccc(C(C)C)c1OC(=O)C(CF)CP(=O)([O-])[O-].CC(C)c1cccc(C(C)C)c1OC(=O)C(CF)CP(=O)([O-])[O-].CC(C)c1cccc(C(C)C)c1OC(=O)C(CF)CP(=O)([O-])[O-].[Al+3].[Al+3] (racemic) [G6, tri[propofol 3-phosphoryl-2-(R,S)-2-monofluoromethylpropionate] dialuminum salt] | 27.1% | 44.3% | 22.1% | 39.7% | 
7 | CC(C)c1cccc(C(C)C)c1OC(=O)[C@@H](CCN(C)C)C(F)(F)F.Cl [E3, propofol 4-N,N-dimethylamino-2-(R)-2-trifluoromethylbutyrate hydrochloride] | 51.7% | 67.2% | 77.5% |  | 
8 | CC(C)c1cccc(C(C)C)c1OC(=O)[C@@H](F)CCCN(C)Cc1ccccc1.Cl [E5, propofol 5-N-methyl-N-benzylamino-2-(S)-2-fluorovalerate hydrochloride] | 48.4% | 69.7% | 72.3% | 97.3% | 
9 | CC(C)c1cccc(C(C)C)c1OC(=O)[C@@H](F)CCN1CC1.Cl [E7, propofol 4-(aziridin-1-yl)-2-(S)-2-fluorobutyrate hydrochloride] | 89.4% | 94.4% | 92.3% |  | 
10 | CC(C)c1cccc(C(C)C)c1OC(=O)[C@H](F)CCN1CCCC1.Cl [E8, propofol 4-(pyrrolidin-1-yl)-2-(R)-2-fluorobutyrate hydrochloride] | 91.1% | 98.2% | 95.6% |  | 
11 | CC(C)c1cccc(C(C)C)c1OC(=O)C(F)CCC(=O)[O-].[K+] [F2, propofol 4-carboxyl-2-(S)-fluorovalerate potassium salt] | 73.4% | 94.8% | 92.3% |  | 
12 | CC(C)c1cccc(C(C)C)c1OC(=O)C(CCC(=O)[O-])C(F)(F)F.[Li+] [F3, propofol 4-carboxyl-2-(R)-2-trifluoromethyl valerate lithium salt] | 28.4% | 47.9% | 47.4% |  | 
13 | CC(C)c1cccc(C(C)C)c1OC(=O)C(F)CCCC(=O)[O-].CC(C)c1cccc(C(C)C)c1OC(=O)C(F)CCCC(=O)[O-].[Zn+2] [F5, di[propofol 5-carboxyl-2-(S)-fluorohexanoate] zinc salt] | 34.9% | 58.8% | 63.2% | 80.3% | 
14 | CC(C)c1cccc(C(C)C)c1OC(=O)C(F)C(=O)[O-].[Na+] [F8, Propofol-2-(R)-fluoropropionate monoester sodium salt] | 41.2% | 70.4% | 55.5% | 69.3% | 83.3%
15 | CC(C)c1cccc(C(C)C)c1OC(=O)[C@@H](CCOP(=O)([O-])[O-])C(F)(F)F.[Li+].[Li+] [G3, {1-[4-(2,6-diisopropylphenoxy)-4-oxo-3-(R)-3-trifluoromethyl-1-butyl]} phosphate monoester dilithium salt] | 21.7% | 43.6% | 38.7% |  | 
